The text below walks through data of the Kinase Knowledgebase extract (Sharma et al. 2016).

Molecules are shown by their SMILES.

Chain of PIK3CD (Human) (O00329 whole entry, looked up): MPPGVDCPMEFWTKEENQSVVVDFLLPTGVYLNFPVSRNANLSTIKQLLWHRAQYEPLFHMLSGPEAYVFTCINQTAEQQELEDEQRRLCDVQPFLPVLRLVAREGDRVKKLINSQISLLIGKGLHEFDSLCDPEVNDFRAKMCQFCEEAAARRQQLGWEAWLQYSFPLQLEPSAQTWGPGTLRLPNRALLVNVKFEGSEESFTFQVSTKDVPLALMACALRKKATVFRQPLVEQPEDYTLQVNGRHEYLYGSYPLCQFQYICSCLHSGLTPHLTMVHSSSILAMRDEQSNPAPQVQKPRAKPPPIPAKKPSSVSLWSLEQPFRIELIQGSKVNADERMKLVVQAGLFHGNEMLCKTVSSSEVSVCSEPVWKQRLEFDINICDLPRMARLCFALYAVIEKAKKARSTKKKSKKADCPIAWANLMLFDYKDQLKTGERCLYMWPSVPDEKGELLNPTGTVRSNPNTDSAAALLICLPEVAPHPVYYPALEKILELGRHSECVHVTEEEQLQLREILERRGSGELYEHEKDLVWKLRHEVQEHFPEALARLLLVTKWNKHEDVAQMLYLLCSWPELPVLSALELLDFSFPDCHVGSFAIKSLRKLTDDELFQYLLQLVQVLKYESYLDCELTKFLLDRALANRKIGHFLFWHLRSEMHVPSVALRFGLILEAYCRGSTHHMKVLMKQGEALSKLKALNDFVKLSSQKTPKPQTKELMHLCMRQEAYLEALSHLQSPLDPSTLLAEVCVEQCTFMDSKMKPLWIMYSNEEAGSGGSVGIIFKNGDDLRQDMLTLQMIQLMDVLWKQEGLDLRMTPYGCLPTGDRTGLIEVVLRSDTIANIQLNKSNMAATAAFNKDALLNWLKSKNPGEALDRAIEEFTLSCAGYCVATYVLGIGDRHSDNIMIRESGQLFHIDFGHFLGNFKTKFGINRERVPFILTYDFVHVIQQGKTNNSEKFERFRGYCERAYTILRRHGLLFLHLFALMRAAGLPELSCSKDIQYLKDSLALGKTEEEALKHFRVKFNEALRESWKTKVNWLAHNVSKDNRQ

This assay has as its target PIK3CD (Human) (UniProt O00329). Put plainly: Inhibition of PIK3CD Kinase Activity.
With `CCn1c(CN2CCC(C)(C(N)=O)CC2)nc2c(N3CCOCC3)nc(-c3c(F)ccc4[nH]ccc34)nc21`, the IC50 (commonly the midpoint of a concentration-inhibition curve) is less than 500 nM. With `CCn1c(CN2CCc3ccccc3C2)nc2c(N3CCOCC3)nc(-c3c(F)ccc4[nH]ccc34)nc21` the figure was less than 500 nM; with `CCn1c(CN2CCC(N3CC(F)(F)C3)CC2)nc2c(N3CCOCC3)nc(-c3cccc4[nH]ccc34)nc21`, less than 500 nM.

`CCn1c(CN2CC(=O)NC(C)(C)C2)nc2c(N3CCOCC3)nc(-c3c(F)ccc4[nH]ccc34)nc21` displayed an IC50 of less than 500 nM.

As for `CCn1c(CN2CC(NC(C)(C)C(N)=O)C2)nc2c(N3CCOCC3)nc(-c3c(F)ccc4[nH]ccc34)nc21`, the half-maximal inhibitory concentration (IC50) was less than 500 nM. For the molecule `CCn1c(CN2CCN(CC(F)(F)F)CC2)nc2c(N3CCOCC3)nc(-c3cccc4[nH]ccc34)nc21`, the concentration for half-maximal inhibition (IC50) was less than 500 nM. In turn, `CCn1c(CN2CCC(N3CCOC3=O)CC2)nc2c(N3CCOCC3)nc(-c3cccc4[nH]ccc34)nc21` registered an IC50 of less than 500 nM. The value for `CCn1c(CN2CCC(N3CC(F)C3)CC2)nc2c(N3CCOCC3)nc(-c3c(F)ccc4[nH]ccc34)nc21` was less than 500 nM; that for `CCn1c(CN2CCC(N(C)C)CC2)nc2c(N3CCOCC3)nc(-c3c(F)ccc4[nH]ccc34)nc21` was less than 500 nM; that for `CCn1c(CN2CCC(N3CCCC3=O)CC2)nc2c(N3CCOCC3)nc(-c3c(F)ccc4[nH]ccc34)nc21` was less than 500 nM. With `CCn1c(CN2CCC(N3CCS(=O)(=O)CC3)CC2)nc2c(N3CCOCC3)nc(-c3c(F)ccc4[nH]ccc34)nc21` the figure was less than 500 nM. The value for `CCn1c(CN2CCC(N3CCCC3=O)CC2)nc2c(N3CCOCC3)nc(-c3cccc4[nH]ccc34)nc21` was less than 500 nM; that for `CCn1c(CN2CCN3CCC[C@H]3C2)nc2c(N3CCOCC3)nc(-c3c(F)ccc4[nH]ccc34)nc21` was less than 500 nM.

As to `CCn1c(CN2CCC3(CCNC3=O)CC2)nc2c(N3CCOCC3)nc(-c3cccc4[nH]ccc34)nc21`, the concentration for half-maximal inhibition (IC50) was less than 500 nM. The value for `CCn1c(CN2CCC3(CC2)CNC(=O)CO3)nc2c(N3CCOCC3)nc(-c3cccc4[nH]ccc34)nc21` was less than 500 nM; that for `CCn1c(CN2CCc3ccccc3C2)nc2c(N3CCOCC3)nc(-c3cccc4[nH]ccc34)nc21` was less than 500 nM; that for `CCn1c(CN2CCOC(C)(C)C2)nc2c(N3CCOCC3)nc(-c3c(F)ccc4[nH]ccc34)nc21` was less than 500 nM. With `CCn1c(CN2CCC(C(=O)O)CC2)nc2c(N3CCOCC3)nc(-c3c(F)ccc4[nH]ccc34)nc21` the figure was less than 500 nM.

With `CCn1c(CN2CC(N(C)C(C)(C)C(N)=O)C2)nc2c(N3CCOCC3)nc(-c3cccc4[nH]ccc34)nc21`, the half-inhibitory concentration (IC50) was less than 500 nM. `CCn1c(CN2C[C@@H](C)N(CC(N)=O)[C@@H](C)C2)nc2c(N3CCOCC3)nc(-c3cccc4[nH]ccc34)nc21` came in with a half-inhibitory concentration (IC50) of less than 500 nM. With `CCn1c(CN2CCN3CCOC[C@H]3C2)nc2c(N3CCOCC3)nc(-c3c(F)ccc4[nH]ccc34)nc21` the figure was less than 500 nM. The value for `CCn1c(CN2CCN(C3CCOCC3)CC2)nc2c(N3CCOCC3)nc(-c3cccc4[nH]ccc34)nc21` was less than 500 nM.

Consider `CCn1c(CN2CCN3CCOC[C@H]3C2)nc2c(N3CCOCC3)nc(-c3cccc4[nH]ccc34)nc21`, for which the IC50 is less than 500 nM. With `CN(C)C1CCN(Cc2nc3c(N4CCOCC4)nc(-c4cccc5[nH]ccc45)nc3[nH]2)CC1` the figure was less than 500 nM; with `CCn1c(CN2CCN(C(C)(C)C(N)=O)CC2)nc2c(N3CCOCC3)nc(-c3cccc4[nH]ccc34)nc21`, less than 500 nM; with `CCn1c(CN2CC(N(C)C(C)(C)C(N)=O)C2)nc2c(N3CCOCC3)nc(-c3c(F)ccc4[nH]ccc34)nc21`, less than 500 nM. The value for `CCn1c(CN2CCN(C3CCOCC3)CC2)nc2c(N3CCOCC3)nc(-c3c(F)ccc4[nH]ccc34)nc21` was less than 500 nM; that for `CCn1c(CN2CCC(N3CC(F)(F)C3)CC2)nc2c(N3CCOCC3)nc(-c3c(F)ccc4[nH]ccc34)nc21` was less than 500 nM; that for `CCn1c(CN2CCC(N3CCOCC3)CC2)nc2c(N3CCOCC3)nc(-c3c(F)ccc4[nH]ccc34)nc21` was less than 500 nM.
